In patent US20240084272A1, “CYTOCHROME P450 MONOOXYGENASES AND USES THEREOF” (THE UNIVERSITY OF BRITISH COLUMBIA, priority 2020, published 2024):

Experiments:
Assay type in all cases: cell-based, Camptotheca acuminata
Ca32236/CPT10H = assay: In vivo yeast biotransformation / substrate scope assay with CPT 10-hydroxylase; settings: for Conversion rate (%): substrate converted to hydroxylated product, yeast in vivo assay, 1 L culture, calculated based on LCMS analysis
Text: (§1) For heterologous expression of Flag-tagged CYP450s in yeast (Saccharomyces cerevisiae), the full-length coding region of each CYP450 candidate was cloned between SpeI and NcoI restriction sites of MCS1 of the dual plasmid pESC-Leu2d with a cytochrome P450 reductase (CPR) in MCS2 (Dang et al 2018, Nature Chemical Biology 14, 760-763; Rot al 2008, BMC biotechnology 8, 83) yielding pESC-Leu2d::CYP/CPR using In-Fusion cloning system (Takara Clontech). The resulted pESC-Leu2d::CYP/CPR was transformed to the protease-deficient yeast strain YPL 154C:Pep4KO, and yeast harbouring pESC-Leu2d::CPR was used as the negative control. To optimize HCPT production, Δerg6 Δtop1 yeast double mutant strain SMY75-1.4A43 was used, which was previously generated to allow better penetration of, and improved resistance to, topoisomerase I inhibitors such as CPT. The conditions for yeast culture, microsome preparation, and immunoblot analysis are further described below.
(§2) For screening in vivo CPT oxidation activities, 10 μM CPT was fed to 100-μL, cultures of YPLC 154C:Pep4KO yeast transformed with the vector for 48 h. The culture volume can be scaled up to 2 L with the camptothecin concentration up to 50 μM to produce sufficient products for structural characterization and/or semi-synthesis of camptothecin derivatives. Standard in vitro assays were performed at 30 C for 1 hour in 100 μL of 100 mM HEPES-NaOH (pH 7.5) containing […] of total microsomal proteins, 50 μM substrate (FIGS. 6) and 250 μM NADPH on a gyratory shaker with agitation (750 rpm). Reactions were stopped by adding 800 μL methanol. The reaction mixture was extracted twice with methanol to precipitate and remove proteins. The supernatant was subjected to LC-MS/MS analysis
(§3) For routine yeast culture, the transgenic yeast strain was inoculated in 2 mL of synthetic complete (SC) medium lacking leucine (SC-Leu) containing 2% (w/v) glucose and cultured overnight at 30 °C and 250 rpm. The culture was subsequently diluted 100-fold to an OD600 of 0.05 in SC-Leu supplemented with 2% (w/v) glucose and cultured for 16 hr. Yeast was then harvested and sub-cultured for 24 hr in YPA medium containing 2% (w/v) galactose to induce the production of recombinant CYP450s. Yeast cells were harvested by centrifugation and lysed for 2 min using a micro-bead beater (VWR) and 500-μm diameter glass beads in TES (0.6 M sorbitol in TE) buffer. The resulting lysate was subsequently centrifuged at 10,000 g for 15 min at 4 C. The supernatant was then transferred to a new tube and centrifuged at 40,000 g for 60 min at 4 C. Finally, the pellet containing microsomes was resuspended with TEG buffer (20% (v/v) glycerol in TE). Expression of Ca32229 and Ca32236 was confirmed by immunoblot analysis of microsomal fractions prepared from S. cerevisiae cultures harbouring the pESC-Leu2d::CPR/Ca32229 and pESC-Leu2d::CPR/Ca32236 vectors using α-FLAG M2 antibodies (ThermoFisher Scientific) detectable with SuperSignal West Pico Chemiluminescent Substrate (ThermoFisher Scientific) to probe epitope-tagged recombinant proteins (FIG. 6).
(§4) Enzyme assays were analyzed by ultra-performance liquid chromatography (UPLC) on a Xevo TQ-S Cronos Triple Quadrupole Mass Spectrometry (Waters). For all studies, chromatography was performed on an XBridge BEH XP (10×2.1 mm, 1.7 μm) column at a flow rate of 0.6 mL.min−1. The column was equilibrated in solvent A (0.1% formic acid) and the following elution conditions were used: 0 min, 5% B (100% acetonitrile); from 0 to 3.5 min, 35% B; from 3.5 min to 3.75 min, 100% B; 3.75 min to 4.75, 100% B; 4.75 to 6 min, 5% B to re-equilibrate the column. Data were analyzed with MassLynx and TargetLynx (Waters).
(§5) A calibration curve using camptothecin from 0-50 nM was made for quantification. Peaks areas of LC-MS chromatograms were calculated using MassLynx and TargetLynx from Waters and normalized. […]

Ca32229/CPT11H = assay: In vivo yeast biotransformation / substrate scope assay with CPT 11-hydroxylase; settings: for Conversion rate (%): substrate converted to hydroxylated product, yeast in vivo assay, 1 L culture, calculated based on LCMS analysis; for acceptance as substrate / conversion: substrate scope, Example 4
Text: as §1, §2, §3, §4, §5

[1] = tested on: camptothecin hydroxylases (CPTHs), Ca32236 (CPT 10-hydroxylase) and Ca32229 (CPT 11-hydroxylase); assay: In vivo conversion in yeast expressing CPT hydroxylases (enzyme not distinguished); settings: for conversion rate to hydroxylated product, scale-up: 50 μM substrate, after 48-hr inoculation, LCMS; for acceptance as substrate (substrate specificity, FIG. 9): Ca32236 and Ca32229, different conversion rates
Text: as §1, §2
A calibration curve using camptothecin from 0-50 nM was made for quantification. Peaks areas of LC-MS chromatograms were calculated using MassLynx and TargetLynx from Waters and normalized. The amount of substrate consumption, product formation, conversion, and total product yield was quantified using corresponding calibration curves.
To generate sufficient amounts of HCPTs (10 and 11HCPT) and 7-ethyl-HCPT (7-ethyl-10 and 11HCPT) for the synthesis of topotecan, irinotecan and other compounds, enzymatic reactions was scaled up. The transgenic yeast strain was inoculated in 2 mL of synthetic complete medium lacking leucine (SC-Leu) containing 2% (w/v) glucose and cultured overnight at 30° C. and 275 rpm. The culture was subsequently diluted to an OD600 of 0.05 in SC-Leu supplemented with 2% (w/v) glucose and cultured for 16 hr. The yeast was then harvested and sub-cultured for 48 hr in YPA medium containing 2% (w/v) galactose, and 10% glycerol to induce the production of recombinant CYP450s. CPT or 7-ethyl-CPT substrate was fed directly into the culture to reach a final concentration of 50 μM as soon as the yeast was switched from SC-Leu to YPA medium. After 48-hr inoculation, a conversion rate of approximately 70% from CPT or 7-ethyl-CPT to its hydroxylated product was obtained and confirmed by LCMS analysis. The supernatant was collected by centrifugation at 4000 rpm, for 5 minutes. HCPT and 7-ethyl-HCPT were extracted out of reaction matrix by liquid-liquid extraction with ethyl acetate and chloroform, respectively. The solvent was removed by using a rotary evaporator to obtain crude HCPT and 7-ethyl-HCPT substrates for chemical synthesis to topotecan and irinotecan. HCPT and 7-ethyl-HCPT were purified by semi-preparative HPLC prior to the synthesis of derivatives.
A key advantage of the cytochrome P450 monooxygenase enzymes lies in the opportunity to functionalize the inert C—H bond and to further diversify the products to obtain valuable CPT-based scaffolds. […] First, the enzymatic conversion of CPT to HCPTs in yeast expressing CPT hydroxylases was optimized. The initial in vivo conversion rate maximized at 10% (FIG. 2), possibly because CPT is insoluble and the native yeast topoisomerase I is sensitive to CPT. […]

CC[C@@]1(O)C(=O)OCc2c1cc1n(c2=O)Cc2cc3ccccc3nc2-1 [CPT, camptothecin]
Conversion rate (%) (Ca32236/CPT10H): 67%
Conversion rate (%) (Ca32229/CPT11H): 62%
conversion rate to hydroxylated product, scale-up [1]: approximately 70%
initial in vivo conversion rate ([1]; CPT to HCPTs, before optimization): ≤ 10%
acceptance as substrate (substrate specificity, FIG. 9) [1]: accepted as substrates
conversion in SMY75-1.4A yeast strain ([1]; SMY75-1.4A (Δerg6 Δtop1) yeast strain): up to 67%
yield (conversion) after growth optimization ([1]; transgenic yeast in YPA medium with 2% galactose and 10% glycerol for 48 hrs): up to 40%

CCc1c2c(nc3ccccc13)-c1cc3c(c(=O)n1C2)COC(=O)[C@]3(O)CC [Compound 7-EthylCPT, 7-ethylcamptothecin]
Conversion rate (%) (Ca32236/CPT10H): 8%
acceptance as substrate (Ca32236/CPT10H; substrate scope, Example 4): accepted
Conversion rate (%) (Ca32229/CPT11H): 32%
acceptance as substrate (Ca32229/CPT11H): accepted
conversion rate to hydroxylated product, scale-up [1]: approximately 70%
acceptance as substrate (substrate specificity, FIG. 9) [1]: accepted as substrates

evodiamine
acceptance as substrate (substrate specificity, FIG. 9) [1]: accepted as substrates

CCC1(O)C(=O)OCc2c1cc1n(c2=O)Cc2cc3cc(O)ccc3nc2-1 (stereo not drawn) [10-HydroxyCPT, 10-hydroxycamptothecin]
Conversion rate (%) (Ca32229/CPT11H): 11%
acceptance as substrate (Ca32229/CPT11H): accepted
conversion (Ca32229/CPT11H): 7%
acceptance as substrate (substrate specificity, FIG. 9) [1]: accepted as substrates

CC[C@@]1(O)C(=O)OCc2c1cc1n(c2=O)Cc2cc3c(N)cccc3nc2-1 [Compound 9-AminoCPT, 9-amino-camptothecin]
Conversion rate (%) (Ca32236/CPT10H): 9%
conversion rate (Ca32236/CPT10H; substrate scope, Example 4): 9%
Conversion rate (%) (Ca32229/CPT11H): 9%
conversion (Ca32229/CPT11H): 9%
acceptance as substrate (substrate specificity, FIG. 9) [1]: accepted as substrates

CCC1(O)C(=O)OCc2c1cc1n(c2=O)Cc2cc3ccc(O)cc3nc2-1 (stereo not drawn) [Compound 11HCPT, 11-hydroxycamptothecin]
acceptance as substrate (Ca32236/CPT10H; substrate scope, Example 4): not accepted
